How the values were obtained:
Type in all cases: biochemical
JAK1 = JAK1 (Homo sapiens (Human), UniProt P23458); assay: JAK enzymatic assay (peptide mobility shift), JAK1; settings: recombinant JAK1 20 nM, IRS-1 peptide, 240 minutes
JAK3 = JAK3 (Homo sapiens (Human), UniProt P52333); assay: JAK enzymatic assay (peptide mobility shift), JAK3; settings: recombinant JAK3 1 nM, JAKtide peptide, 90 minutes
JAK2 = JAK2 (Homo sapiens (Human), UniProt O60674); assay: JAK enzymatic assay (peptide mobility shift), JAK2; settings: recombinant JAK2 2 nM, JAKtide peptide, 150 minutes
JAK2, sequence (O60674 808-1132): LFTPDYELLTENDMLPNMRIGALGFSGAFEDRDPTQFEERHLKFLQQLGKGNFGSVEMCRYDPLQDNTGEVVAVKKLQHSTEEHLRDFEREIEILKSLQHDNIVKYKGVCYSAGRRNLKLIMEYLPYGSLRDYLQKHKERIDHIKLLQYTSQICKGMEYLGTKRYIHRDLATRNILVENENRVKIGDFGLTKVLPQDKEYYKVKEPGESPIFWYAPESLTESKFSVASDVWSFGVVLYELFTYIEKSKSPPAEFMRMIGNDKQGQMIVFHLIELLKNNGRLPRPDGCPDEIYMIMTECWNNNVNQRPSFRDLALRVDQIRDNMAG

JAK1, sequence (P23458 whole entry): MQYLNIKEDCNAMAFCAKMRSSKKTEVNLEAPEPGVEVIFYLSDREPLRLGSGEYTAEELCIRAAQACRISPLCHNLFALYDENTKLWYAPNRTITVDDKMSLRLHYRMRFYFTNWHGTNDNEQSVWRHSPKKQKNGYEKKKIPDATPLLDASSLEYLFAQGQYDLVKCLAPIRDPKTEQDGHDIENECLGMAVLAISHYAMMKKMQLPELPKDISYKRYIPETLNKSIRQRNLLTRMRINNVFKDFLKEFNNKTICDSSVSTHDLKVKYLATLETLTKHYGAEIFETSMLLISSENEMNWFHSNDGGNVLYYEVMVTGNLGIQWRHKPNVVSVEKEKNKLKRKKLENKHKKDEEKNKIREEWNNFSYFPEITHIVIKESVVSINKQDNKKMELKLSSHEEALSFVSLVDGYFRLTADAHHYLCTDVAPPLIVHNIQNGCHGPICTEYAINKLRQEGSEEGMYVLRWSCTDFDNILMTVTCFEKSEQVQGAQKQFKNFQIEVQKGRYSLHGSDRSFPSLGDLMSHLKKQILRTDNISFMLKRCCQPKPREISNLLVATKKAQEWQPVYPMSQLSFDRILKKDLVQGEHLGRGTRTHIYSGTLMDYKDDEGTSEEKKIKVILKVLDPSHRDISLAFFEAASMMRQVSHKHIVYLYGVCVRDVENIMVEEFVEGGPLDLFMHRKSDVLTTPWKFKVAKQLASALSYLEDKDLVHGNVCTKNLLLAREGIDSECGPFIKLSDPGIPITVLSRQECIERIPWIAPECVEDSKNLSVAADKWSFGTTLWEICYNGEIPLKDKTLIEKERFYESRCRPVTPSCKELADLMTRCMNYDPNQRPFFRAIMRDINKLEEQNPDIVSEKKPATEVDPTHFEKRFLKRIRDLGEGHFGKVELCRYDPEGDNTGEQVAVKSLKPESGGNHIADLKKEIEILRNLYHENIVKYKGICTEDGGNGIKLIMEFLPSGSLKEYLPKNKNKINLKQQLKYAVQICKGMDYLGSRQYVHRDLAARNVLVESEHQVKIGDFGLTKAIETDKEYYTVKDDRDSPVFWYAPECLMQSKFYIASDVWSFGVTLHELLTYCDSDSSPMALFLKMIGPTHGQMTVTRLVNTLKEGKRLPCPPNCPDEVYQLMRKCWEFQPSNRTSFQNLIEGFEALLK
JAK3, sequence (P52333 781-1124): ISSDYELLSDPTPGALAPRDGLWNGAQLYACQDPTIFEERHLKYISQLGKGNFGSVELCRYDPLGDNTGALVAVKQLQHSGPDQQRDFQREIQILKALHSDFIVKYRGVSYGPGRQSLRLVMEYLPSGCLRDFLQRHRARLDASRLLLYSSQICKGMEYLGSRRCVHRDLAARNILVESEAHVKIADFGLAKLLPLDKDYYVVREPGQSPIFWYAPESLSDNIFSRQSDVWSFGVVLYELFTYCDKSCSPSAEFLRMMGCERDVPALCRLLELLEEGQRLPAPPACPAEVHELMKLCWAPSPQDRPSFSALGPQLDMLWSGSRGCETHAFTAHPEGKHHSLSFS

Row | Structure (SMILES) | IC50 (JAK1) [nM] | IC50 (JAK3) [nM] | IC50 (JAK2) [nM]
1 | CN(c1ncnc2[nH]ccc12)[C@H]1CC[C@H](CS(=O)(=O)N2CC[C@H](S(=O)(=O)CCc3ccccc3)C2)CC1 [Example 83, N-methyl-N-{trans-4-[({3-[(2-phenylethyl)-sulfonyl]pyrrolidin-1-yl}sulfonyl)methyl]cyclo-hexyl}-7H-pyrrolo[2,3-d]pyrimidin-4-amine] | 4.79 | 133 | 16.7
2 | CN(c1ncnc2[nH]ccc12)[C@H]1CC[C@H](CS(=O)(=O)N2CC[C@@](O)(COc3cccc(F)c3)C2)CC1 [Example 84, 3-[(3-fluorophenoxy)-methyl]-1-[({trans-4-[methyl(7H-pyrrolo[2,3-d]-pyrimidin-4-yl)amino]-cyclohexyl}methyl)sulfonyl] pyrrolidin-3-ol] | 3.12 | 132 | 26.2
3 | Cc1cc(CC[C@]2(O)CCN(S(=O)(=O)C[C@H]3CC[C@H](N(C)c4ncnc5[nH]ccc45)CC3)C2)on1 [Example 85, 3-[2-(3-methylisoxazol-5-yl)ethyl]-1-[({trans-4-[methyl(7H-pyrrolo[2,3-d]-pyrimidin-4-yl)amino]-cyclohexyl}methyl)sulfonyl] pyrrolidin-3-ol] | 10.5 | 286 | 46.2
4 | CN(c1ncnc2[nH]ccc12)[C@H]1CC[C@H](CS(=O)(=O)N2CC[C@H](c3ncccn3)C2)CC1 [Example 87, N-methyl-N-(trans-4-{[(3-pyrimidin-2-ylpyrrolidin-1-yl)sulfonyl]methyl}cyclo-hexyl)-7H-pyrrolo[2,3-d]pyrimidin-4-amine] | 3.27 | 55.7 | 5.72
5 | CN(c1ncnc2[nH]ccc12)[C@H]1CC[C@H](CS(=O)(=O)N2CC[C@H](Oc3ccccc3C#N)C2)CC1 [Example 88, 2-({(3S)-1-[({trans-4-[methyl(7H-pyrrolo[2,3-d]-pyrimidin-4-yl)amino]-cyclohexyl}methyl)sulfonyl]pyrrolidin-3-yl}oxy)-benzonitrile] | 6.73 | 413 | 23.4
6 | CN(c1ncnc2[nH]ccc12)[C@H]1CC[C@H](CS(=O)(=O)N2CC[C@@](O)(Cn3cccn3)C2)CC1 [Example 90, 1-[({trans-4-[methyl(7H-pyrrolo[2,3-d]pyrimidin-4-yl)amino]cyclohexyl}methyl)-sulfonyl]-3-(1H-pyrazol-1-ylmethyl)pyrrolidin-3-ol] | 1.8 | 82.3 | 9.3
7 | CN(c1ncnc2[nH]ccc12)[C@H]1CC[C@H](CS(=O)(=O)N2CC[C@@](O)(c3ccccc3)C2)CC1 [Example 91, 1-[({trans-4-[methyl(7H-pyrrolo[2,3-d]pyrimidin-4-yl)amino]cyclohexyl}-methyl)sulfonyl]-3-phenylpyrrolidin-3-ol] | 1.92 | 76.6 | 10.8
8 | CN(C(=O)OC(C)(C)C)[C@H]1CCN(S(=O)(=O)C[C@H]2CC[C@H](N(C)c3ncnc4[nH]ccc34)CC2)C1 [Example 92, tert-butyl methyl{(3S)-1-[({trans-4-[methyl(7H-pyrrolo[2,3-d]pyrimidin-4-yl)amino]cyclohexyl}methyl)-sulfonyl]pyrrolidin-3-yl}carbamate] | 6.91 | 488 | 81
9 | CN(c1ncnc2[nH]ccc12)[C@H]1CC[C@H](CS(=O)(=O)N2CC[C@](CO)(CCO)C2)CC1 [Example 95, 2-{3-(hydroxymethyl)-1-[({trans-4-[methyl(7H-pyrrolo[2,3-d]pyrimidin-4-yl)amino]cyclohexyl}-methyl)sulfonyl]pyrrolidin-3-yl}-ethanol] | 12.5 | 612 | 45.8
10 | CN(c1ncnc2[nH]ccc12)[C@H]1CC[C@H](CS(=O)(=O)N2CC[C@@](O)(CSc3ccccn3)C2)CC1 [Example 97, 1-[({trans-4-[methyl(7H-pyrrolo[2,3-d]pyrimidin-4-yl)-amino]cyclohexyl}-methyl)sulfonyl]-3-[(pyridin-2-ylthio)-methyl]pyrrolidin-3-ol] | 1.36 | 85.6 | 13.1
11 | CN(c1ncnc2[nH]ccc12)[C@H]1CC[C@H](CS(=O)(=O)N2CC[C@@H](c3ccccc3)C2)CC1 [Example 100, N-methyl-N-(trans-4-{[(3-phenylpyrrolidin-1-yl)sulfonyl]methyl}cyclo-hexyl)-7H-pyrrolo[2,3-d]pyrimidin-4-amine] | 6.89 | 414 | 40.7
12 | CN(c1ncnc2[nH]ccc12)[C@H]1CC[C@H](CS(=O)(=O)N2CC[C@](O)(c3ccccn3)C2)CC1 [Example 103, 1-[({trans-4-[methyl(7H-pyrrolo[2,3-d]pyrimidin-4-yl)-amino]cyclohexyl}-methyl)sulfonyl]-3-pyridin-2-ylpyrrolidin-3-ol] | 10.6 | 294 | 35.8
13 | Cc1cccc(C[C@H]2CCCN2S(=O)(=O)C[C@H]2CC[C@H](N(C)c3ncnc4[nH]ccc34)CC2)n1 [Example 106, N-methyl-N-{trans-4-[({2-[(6-methylpyridin-2-yl)methyl]pyrrolidin-1-yl}sulfonyl)methyl]cyclo-hexyl}-7H-pyrrolo[2,3-d]pyrimidin-4-amine] | 3.6 | 322 | 24.3

Next, values leading:

Row | IC50 (JAK1) [nM] | IC50 (JAK3) [nM] | IC50 (JAK2) [nM] | Structure (SMILES)
14 | 2.78 | 90.6 | 24.8 | CNS(=O)(=O)[C@H]1CCN(S(=O)(=O)C[C@H]2CC[C@H](N(C)c3ncnc4[nH]ccc34)CC2)C1 [Example 81, N-methyl-1-[({trans-4-[methyl(7H-pyrrolo[2,3-d]-pyrimidin-4-yl)amino]-cyclohexyl}methyl)sulfonyl] pyrrolidine-3-sulfonamide]
15 | 7.34 | 146 | 17.4 | CN(c1ncnc2[nH]ccc12)[C@H]1CC[C@H](CS(=O)(=O)N2CC[C@H](S(=O)(=O)Cc3ccccc3)C2)CC1 [Example 82, N-[trans-4-({[3-(benzyl-sulfonyl)pyrrolidin-1-yl]sulfonyl}-methyl)-cyclohexyl]-N-methyl-7H-pyrrolo[2,3-d]pyrimidin-4-amine]
16 | 4.45 | 96.6 | 17.5 | COc1ccccc1CS(=O)(=O)[C@H]1CCN(S(=O)(=O)C[C@H]2CC[C@H](N(C)c3ncnc4[nH]ccc34)CC2)C1 [Example 89, N-{trans-4-[({3-[(2-methoxybenzyl)sulfonyl]-pyrrolidin-1-yl}sulfonyl)-methyl]cyclohexyl}-N-methyl-7H-pyrrolo[2,3-d]-pyrimidin-4-amine]
17 | 5.5 | 286 | 37.4 | CN(c1ncnc2[nH]ccc12)[C@H]1CC[C@H](CS(=O)(=O)N2CC[C@H](c3ccccc3F)C2)CC1 [Example 93, N-[trans-4-({[3-(2-fluorophenyl)pyrrolidin-1-yl]sulfonyl}methyl)cyclo-hexyl]-N-methyl-7H-pyrrolo[2,3-d]pyrimidin-4-amine]
18 | 17.5 | 678 | 63.6 | CCc1ccc(COC[C@H]2CCN(S(=O)(=O)C[C@H]3CC[C@H](N(C)c4ncnc5[nH]ccc45)CC3)C2)nc1 [Example 94, N-(trans-4-{[(3-{[(5-ethylpyridin-2-yl)methoxy]-methyl}pyrrolidin-1-yl)-sulfonyl]methyl}-cyclohexyl)-N-methyl-7H-pyrrolo[2,3-d]pyrimidin-4-amine]
19 | 19.3 | 462 | 32.1 | CN(c1ncnc2[nH]ccc12)[C@H]1CC[C@H](CS(=O)(=O)N2CC[C@H](COCc3cccnc3)C2)CC1 [Example 96, N-methyl-N-{trans-4-[({3-[(pyridin-3-ylmethoxy)-methyl]pyrrolidin-1-yl}-sulfonyl)methyl]-cyclohexyl}-7H-pyrrolo[2,3-d]pyrimidin-4-amine]
20 | 4.37 | 386 | 29.6 | CN(c1ncnc2[nH]ccc12)[C@H]1CC[C@H](CS(=O)(=O)N2CC[C@H](OCC(=O)N3CCCC3)C2)CC1 [Example 98, N-methyl-N-[trans-4-({[3-(2-oxo-2-pyrrolidin-1-ylethoxy)pyrrolidin-1-yl]sulfonyl}methyl)cyclo-hexyl]-7H-pyrrolo[2,3-d]pyrimidin-4-amine]
21 | 4.86 | 584 | 35.9 | CCN(CC)C(=O)CO[C@@H]1CCN(S(=O)(=O)C[C@H]2CC[C@H](N(C)c3ncnc4[nH]ccc34)CC2)C1 [Example 101, N,N-diethyl-2-({(3R)-1-[({trans-4-[methyl(7H-pyrrolo[2,3-d]pyrimidin-4-yl)amino]cyclohexyl}-methyl)sulfonyl]pyrrolidin-3-yl}oxy)acetamide]
22 | 19.9 | 283 | 28.6 | CN(c1ncnc2[nH]ccc12)[C@H]1CC[C@H](CS(=O)(=O)N2CC[C@H](Cc3cnccn3)C2)CC1 [Example 102, N-methyl-N-[trans-4-({[3-(pyrazin-2-ylmethyl)-pyrrolidin-1-yl]sulfonyl}-methyl)cyclohexyl]-7H-pyrrolo[2,3-d]pyrimidin-4-amine]
23 | 18 | 721 | 65.4 | CN(c1ncnc2[nH]ccc12)[C@H]1CC[C@H](CS(=O)(=O)N2CC[C@H](Cc3ccccc3)C2)CC1 [Example 104, N-(trans-4-{[(3-benzyl-pyrrolidin-1-yl)sulfonyl]-methyl}cyclohexyl)-N-methyl-7H-pyrrolo[2,3-d]-pyrimidin-4-amine]
24 | 17.8 | 755 | 90.4 | CCN1CCN(C[C@H]2CCN(S(=O)(=O)C[C@H]3CC[C@H](N(C)c4ncnc5[nH]ccc45)CC3)C2)C(=O)C1=O [Example 105, 1-ethyl-4-({1-[({trans-4-[methyl(7H-pyrrolo[2,3-d]pyrimidin-4-yl)amino]cyclohexyl}methyl)-sulfonyl]pyrrolidin-3-yl}methyl)piperazine-2,3-dione]
25 | 2.54 | 36.3 | 6.22 | CN(c1ncnc2[nH]ccc12)[C@H]1CC[C@H](CS(=O)(=O)N2CC[C@H](c3ccccn3)C2)CC1 [Example 107, N-methyl-N-(trans-4-{[(3-pyridin-2-ylpyrrolidin-1-yl)sulfonyl]methyl}cyclo-hexyl)-7H-pyrrolo[2,3-d]pyrimidin-4-amine]

Reference: patent publication US8633206B2, “Pyrrolo[2,3-D]pyrimidine compounds” (Pfizer Inc., priority 2009, dated 2014)
